# Assay results published in PubChem BioAssay AID1963847 (Molecular Pharmacology Branch, DTP, NCI, 2024).
# Values joined by “and” are separate entries in the source; they are usually repeats but may differ in a detail not shown here. Equal entries are not always repeated.
# System: 415267-285-R-J2-PDC complex spheroid viability
# Assay: Anticancer human tumor 415267-285-R-J2-PDC patient-derived breast carcinoma cell line growth inhibition [POLQ]
# Settings: for viability, T/C: stronger effect = lower value
# Experimental: Multicellular complex tumor spheroid response to Polymerase (POL) inhibitors (novobiocin, ART-558, RP6685) in combination with a variety of drugs and investigational agents in selected tumor cell lines
# The POL inhibitors (novobiocin, ART-558, and RP6685) were evaluated both individually and in combination with standard of care and investigational anticancer small molecules within a complex spheroid model of solid tumors. . Complex spheroids include a stromal component modeled by human endothelial cells (HUVEC) and fibroblasts modeled by human mesenchymal stem cells (MSCs). The concentration ranges selected for each drug and investigational agent were based upon clinically achievable concentrations if the clinical Cmax of the agent was known.
# Compounds. The drugs and investigational agents: novobiocin (NSC847541), ART-558 (NSC835418), RP-6685 (NSC848927), peposertib (NSC802822), ceralasertib (NSC780249), elimusertib (NSC800525), camonsertib (NSC841442), AZD-1390 (NSC803789), olaparib (NSC753686), talazoparib (NSC767125), rucaparib (NSC756644), sotorasib (NSC818433), MRTX-1133 (NSC836407), SN-38 (NSC673596), topotecan (NSC609699), epotoside (NSC141540), doxorubicin (NSC123127), gemcitabine (NSC613327), 5-fluorouracil (NSC19893), paclitaxel (NSC125973), vemurafenib (NSC761431), MSA-2 (NSC828583), SN-011 (NSC837082), adavosertib (NSC754352), prexasertib (NSC758257), carboplatin (NSC241240) and oxaliplatin (NSC266046), were obtained from the National Cancer Institute (NCI) Developmental Therapeutics Program Chemical Repository (21). The FDA-approved anticancer drug set is available from the Developmental Therapeutics Program at https://dtp.cancer.gov/organization/dscb/obtaining/. […] The stock solutions were prepared in dimethyl sulfoxide (DMSO, Sigma-Aldrich, St. Louis, MO, cat. D2650), except for the platinum compounds which were prepared in saline (Quality Biological, Gaithersburg, MD, cat. 114-055-101), at 800-fold the tested concentration and stored at -70 degrees C prior to their use. All drugs and investigational agents were tested over a range starting from a high concentration at or near the clinical Cmax and decreasing in half-log increments. If the clinical Cmax for an agent had not been determined, the highest concentration tested was 10 microM, except for SN-38, which was tested at a high concentration of 1 microM.
# Cell Culture. All cells were maintained in an incubator at 37 degrees C and 5% CO2 with 95% humidity. The PDC lines were cultured according to standard operating procedures established by the NCI PDMR (https://pdmr.cancer.gov). Table 3 of the manuscript, lists the cell lines along with the number of the three cell types plated to form the mct-spheroids and media for tumor cell growth. After thawing, all PDC lines, except 997537-175-T-J1-PDC and 415267-285-R-J2-PDC, were cultured in Matrigel-coated flasks prepared with a working solution of 1X Ham's F-12 nutrient mix, without supplementation (Thermo Fisher Scientific, cat. 11765054), 100 U/mL penicillin-streptomycin (Thermo Fisher Scientific, cat. 15140122), and 2.5% Matrigel (Corning Inc., Corning, NY, cat. 354248) for the first three passages. The two PDC lines 997537-175-T-J1-PDC and 415267-285-R-J2-PDC were cultured on uncoated flasks. The 857933-349-R-J2-PDC line was cultured in 6C/Colon 1B media containing advanced DMEM/F-12 (Thermo Fisher Scientific, cat. 12634028), 10 mM HEPES (Thermo Fisher Scientific, cat. 15630080), 1X GlutaMAX supplement (Thermo Fisher Scientific, cat. 35050061), 0.1 mg/mL primocin (InvivoGen, San Diego, CA, cat. ant-pm-2), 10% defined fetal bovine serum, heat inactivated (HyClone Laboratories Inc., Logan, UT, cat. SH30070.03HI), 50% L-WRN conditioned media (ATCC, cat. CRL-3276), 1.25 mM N-Acetyl-L-cysteine (Sigma-Aldrich, cat. A9165), 10 mM nicotinamide (Sigma-Aldrich, cat. N0636), 1X B-27 supplement (Thermo Fisher Scientific, cat. 17504044), 1X N-2 supplement (Thermo Fisher Scientific, cat. […]
# [1] = compound alone, run of 01/08/2024
# [2] = compound alone, run of 01/19/2024
# 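Note: spheroids exposed to compounds for one week before readout.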
# 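Throughout, for viability, T/C: luminescence used as stand-in measure of viable cells; 100% = DMSO vehicle control viability.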
Structure (SMILES),"viability, T/C (compound 0.0316 µM)","viability, T/C (compound 0.1 µM)","viability, T/C (compound 0.316 µM)","viability, T/C (compound 1 µM)","viability, T/C (compound 3.16 µM)","viability, T/C (compound 10 µM)",IC50 (curve of compound),IC50 [1],"viability, T/C (compound 0.00316 µM)",IC50 [2],"viability, T/C (compound 0.000316 µM)","viability, T/C (compound 0.001 µM)","viability, T/C (compound 0.01 µM)"
CNCc1ccc(-c2[nH]c3cc(F)cc4c3c2CCNC4=O)cc1,107% and 95.9% and 101%,109% and 115% and 101%,96.2% and 94.8% and 102%,94.9% and 105% and 102%,108% and 96% and 106%,103% and 98.2% and 107%,> 10000 nM,,,,,,
COC1C(OC(N)=O)C(O)C(Oc2ccc3c(O)c(NC(=O)c4ccc(O)c(CC=C(C)C)c4)c(=O)oc3c2C)OC1(C)C (stereo unspecified),99.2% [middle of 13 runs],105% [middle of 13 runs],99.3% [middle of 13 runs],,102% [middle of 13 runs],102% [middle of 13 runs],,> 10000 nM,,,,,
COc1cc(C2c3cc4c(cc3C(OC3OC5COC(C)OC5C(O)C3O)C3COC(=O)C23)OCO4)cc(OC)c1O (stereo unspecified),91.8% and 103% and 92%,59.7% and 89.7% and 71.3%,14.1% and 19.4% and 17.1%,7.22% and 5.65% and 8.76%,4.9% and 4.07% and 5.15%,5.87% and 5.42% and 6.28%,128 nM and 192 nM and 157 nM,,,,,,
COc1cc2cc(C(=O)CCC(=O)O)sc2cc1OC,99.2% and 104% and 92.9%,101% and 104% and 90.8%,93.2% and 88% and 110%,104% (2×) and 99.6%,94.7% and 99.9% and 99.6%,111% and 99.6% and 109%,> 10000 nM,,,,,,
COc1ccc([C@@H](O)c2cc(-c3ncnc4cc(N5CCOCC5)ccc34)c(F)cc2Cl)nn1,95.9% and 109% and 85.5%,113% and 97.3% and 88.6%,95.8% and 98.6% and 91.6%,95.5% and 92.4% and 92.3%,86% and 89.3% and 87.6%,40.4% and 53.2% and 40.9%,7850 nM and > 10000 nM and 7990 nM,,,,,,
COc1cccc(OCCCN)c1-c1cc(Nc2cnc(C#N)cn2)n[nH]1,6.92% and 6.25% and 7.08%,6.87% and 6.41% and 5.7%,6.1% and 4.51% and 5.49%,4.67% and 5.09% and 3.72%,,,< 3.16 nM and 7.96 nM and 7.26 nM,,36.5% and 110% and 99.9%,,,,
COc1cccc2c1C(=O)c1c(O)c3c(c(O)c1C2=O)CC(O)(C(=O)CO)CC3OC1CC(N)C(O)C(C)O1 (stereo unspecified),35.4% and 85.5% and 41%,9.21% and 18.3% and 12.6%,5.21% and 3.68% and 5.75%,0.77% and 1.01% and 0.92%,2.13% and 1.47% and 1.31%,2.79% and 3.72% and 2.89%,< 31.6 nM and 58.1 nM,,,,,,
Cc1cccc(N(C)C(=O)C2C(O)CCN2c2nc(C)cc(C(F)(F)F)c2C#N)c1 (stereo unspecified),99.1% [middle of 13 runs],100% [middle of 13 runs],102% [middle of 13 runs],103% [middle of 13 runs],104% [middle of 13 runs],98.5% [middle of 13 runs],,> 10000 nM,,> 10000 nM,,,
Cn1ncnc1[C@H]1c2n[nH]c(=O)c3cc(F)cc(c23)N[C@@H]1c1ccc(F)cc1,108% and 89.2% and 99%,93.3% and 102% and 100%,,,,,> 100 nM,,90.7% and 92.5% and 103%,,88.1% and 97.7% and 104%,98.2% and 104% and 91.7%,101% and 98.7% and 94.5%
Nc1ccc(C#CCN(C(=O)Cc2ncc(C(F)(F)F)cc2C(F)(F)F)c2ccc(F)cc2)nn1,93.6% [middle of 13 runs],101% [middle of 13 runs],101% [middle of 12 runs],103% [middle of 13 runs],107% [middle of 13 runs],106% [middle of 13 runs],,,,> 10000 nM,,,
Nc1ccn(C2OC(CO)C(O)C2(F)F)c(=O)n1 (stereo unspecified),,5.29% and 5.02% and 7.12%,6.27% and 4.87% and 6.14%,5.28% and 7.75% and 7.66%,5.29% and 4.37% and 5.37%,6.07% and 4.68% and 5.14%,< 31.6 nM,,,,,,
O=C(Nc1ccc(O)c(NS(=O)(=O)c2ccc(F)cc2)c1)c1ccc(-c2ccccc2)cc1,111% and 102% and 103%,108% and 97.2% and 98.4%,107% and 98.6% and 103%,92.3% and 107% and 105%,109% and 101% and 98.1%,68.7% and 71.7% and 46.8%,> 10000 nM and 9320 nM,,,,,,
O=C(c1cc(Cc2n[nH]c(=O)c3ccccc23)ccc1F)N1CCN(C(=O)C2CC2)CC1,92.7% and 95.5% and 108%,109% and 91.4% and 105%,86.8% and 95.3% and 97.5%,87.8% and 94.8% and 102%,95.3% and 95.4% and 109%,76.9% and 90.6% and 102%,> 10000 nM,,,,,,
O=c1[nH]cc(F)c(=O)[nH]1,87.3% and 92.5% and 87%,74.7% and 89% and 73.5%,33.6% and 48.5% and 30.5%,29.1% and 24.6% and 27.7%,24.6% and 24.4% and 26%,31.8% and 40.5% and 34.1%,200 nM and 302 nM and 187 nM,,,,,,
